Tests used:
Megoura viceae = assay: Pest toxicity test; type: in vivo; details: 0.1% by weight; broad bean; 2 days
[1] = system: Pieris brassicae (cabbage white caterpillars); assay: Pest toxicity test; type: in vivo; details: 0.1% by weight, 2 days
[2] = system: Agriolimax reticulatus (slugs); assay: Molluscicidal activity test; type: in vivo, Agriolimax reticulatus (Mull); details: pellet with 4% by weight; 6 days; 10°C
Procedure, shortened: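 Slugs were starved for 24 hours, then housed two per dish, in duplicate, under high humidity at 10°C. They fed on pellets dried to contain 4% w/w of test compound. Mortality was scored on day 6.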

[3] = system: Plasmopara viticola (vine); assay: Fungicidal test against foliar disease C (foliage spray plus soil drench); type: in vivo; details: 100 ppm spray and drench; 10 days
Aphis fabae = assay: Pest toxicity test; type: in vivo; details: 0.1% by weight; broad bean; 2 days
Uncinula necator (vine) = assay: Fungicidal test against foliar disease D (foliage spray plus soil drench); type: in vivo; details: 100 ppm spray and drench; 10 days
[4] = system: Puccinia recondita (wheat); assay: Fungicidal test against foliar disease A (foliage spray plus soil drench); type: in vivo; details: 100 ppm spray and drench; 10 days
[5] = system: Tetranychus telarius (red spider mites, eggs); assay: Pest toxicity test; type: in vivo; details: 0.1% by weight; French bean; 3 days
[6] = system: Phytophthora infestans (tomato); type: in vivo; details: 100 ppm spray and drench; 3 days
[7] = system: Piricularia oryzae (rice); type: in vivo; details: 100 ppm spray and drench; 7 days
[8] = system: Aedes aegypti (mosquito adults); assay: Pest toxicity test; type: in vivo; details: 0.01% by weight; plywood; 1 day
[9] = system: Aedes aegypti (mosquito larvae); assay: Pest toxicity test; type: in vivo; details: 0.01% by weight; water; 1 day
[10] = system: Meloidogyne incognita (nematodes); assay: Pest toxicity test; type: in vivo; details: 0.01% by weight; water; 1 day
[11] = system: Phaedon cochleariae (mustard beetles); assay: Pest toxicity test; type: in vivo; details: in vivo
[12] = system: Plutella maculipennis (diamond back moth larvae); assay: Pest toxicity test; type: in vivo; details: in vivo
[13] = system: Tetranychus telarius (red spider mites, adults); assay: Pest toxicity test; type: in vivo; details: 0.1% by weight; French bean; 3 days
[14] = system: larvae of the blowfly (Lucilia serrata); assay: Insecticidal test on blowfly larvae on treated filter paper; type: in vivo; parameters: key: 5 represents inseccticidal activity equal to that of the known insecticide; 6 represents activity 10 times that of the standard; details: scale of 1 to 6; filter paper with horse serum
[15] = system: Musca domestica (houseflies); assay: Pest toxicity test, contact test; type: in vivo; details: 0.1% by weight; milk/sugar; 2 days; flies sprayed directly
Erwinia carotovora = assay: Antibacterial agar test (B4); type: cell-based; details: 50 ppm; 5 days
Wheat = assay: Herbicidal test, pre- and post-emergence; type: in vivo
Streptomyces scabies = assay: Antibacterial agar test (B7); type: cell-based; details: 50 ppm; 5 days
[16] = system: Corynebacterium michiganense; assay: Antibacterial agar test (B2); type: cell-based; details: 50 ppm; 5 days
Procedure, shortened: (§1)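 Bacterial growth on nutrient agar containing 50 ppm final test compound (added from an acetone solution or suspension) was scored 5 days after multipoint inoculation, using graded ratings. Plates were dried overnight before inoculation.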

Xanthomonas oryzae = type: cell-based; details: 50 ppm; 5 days
Lettuce = assay: Herbicidal test, pre- and post-emergence; type: in vivo
Maize = assay: Herbicidal test, pre- and post-emergence; type: in vivo
Tomato = assay: Herbicidal test, pre- and post-emergence; type: in vivo
[17] = system: Agrobacterium tumifaciens; assay: Antibacterial agar test (B1); type: cell-based; details: 50 ppm; 5 days
Xanthomonas malvacearum = assay: Antibacterial agar test (B3); type: cell-based; details: 50 ppm; 5 days
Procedure, shortened: as §1

Pseudomonas syringae = assay: Antibacterial agar test (B6); type: cell-based; details: 50 ppm; 5 days
Barley = assay: Further herbicidal test, various rates; type: in vivo; details: 5 lb/acre; scale 0 to 5 (complete kill)
Onion = assay: Further herbicidal test, various rates; type: in vivo; details: 5 lb/acre; scale 0 to 5 (complete kill)
Pea = assay: Further herbicidal test, various rates; type: in vivo; details: 5 lb/acre; scale 0 to 5 (complete kill)
Carrot = assay: Further herbicidal test, various rates; type: in vivo; details: 5 lb/acre; scale 0 to 5 (complete kill)
Rice = assay: Further herbicidal test, various rates; type: in vivo; details: 5 lb/acre; scale 0 to 5 (complete kill)
Sugar beet = assay: Further herbicidal test, various rates; type: in vivo; details: 5 lb/acre; scale 0 to 5 (complete kill)
Kale = assay: Further herbicidal test, various rates; type: in vivo; details: 5 lb/acre; scale 0 to 5 (complete kill)
[18] = system: Venturia inaequalis (apple); assay: Fungicidal test against foliar disease G (foliage spray plus soil drench); type: in vivo; details: 100 ppm spray and drench; 21 days
Procedure: This Example illustrates the fungicidal properties of compounds used as active ingredients in the compositions of the invention. The compounds were tested against a wide variety of foliar fungal diseases of plants. In the test, a composition comprising an aqueous solution or suspension of the test compound was sprayed on to the foliage or uninfected plants; the soil in which the plants were growing was also drenched with the composition. The compositions used for spraying and drencing contained 100 parts per million (ppm.) of the test compound except where otherwise stated in the table of results below. After spraying and drenching, the plants were then exposed to infection with the diseases it was desired to control, along with control plants not treated with the compound. After a period of days, depending upon the particular disease, the extent of the disease was visually assessed, as a percentage of the disease established upon the control plants which had not been treated with the compound under test, according to the grading scheme below
In Table 2 below the names of the disease is given in the first column, and in the second column is given the time which elapsed between exposing the plants to infection and assessing the amount of disease.

Oat = assay: Further herbicidal test, various rates; type: in vivo; details: 5 lb/acre; scale 0 to 5 (complete kill)
[19] = 10 kg/ha, scale 0 to 3 (complete kill)
[20] = 10 lb/acre (11.2 kg/ha), scale 0 (no effect) to 3 (complete kill)

Row | SMILES | Mortality grading (kill) (Megoura viceae) | Mortality grading (kill) [1] | % Kill of slugs [2] [%] | Amount of disease grading, disease C (Table 4) [3] | Mortality grading (kill) (Aphis fabae) | Amount of disease grading, disease D (Table 4) (Uncinula necator (vine)) | Mortality grading (kill) [5] | Amount of disease grading, disease B (Table 4) [6] | Mortality grading (kill) [8] | Mortality grading (kill) [9] | Mortality grading (kill) [11] | Mortality grading (kill) [12] | Mortality grading (kill) [13] | Activity relative to lindane [14] | Mortality grading (kill), contact test [15] | Antibacterial activity grading B4 (Erwinia carotovora) | Antibacterial activity grading B7 (Streptomyces scabies) | Antibacterial activity grading B2 [16] | Antibacterial activity grading B5 (Xanthomonas oryzae) | Antibacterial activity grading B1 [17] | also measured
1 | O=[N+]([O-])c1cc([N+](=O)[O-])c2ccccc2c1Nc1c(Cl)c(F)nc(F)c1Cl [Compound 25, 3,5-Dichloro-2,6-difluoro-4(2,4-dinitro-1-naphthylamino) pyridine] | 0 (O represents less than 30% kill) | 3 (3 represents over 90% kill) | 50 | 3 (0 to 5) | 0 (O represents less than 30% kill) | 3 (0 to 5) | 2 (2 represents 60 - 90% kill) | 3 (0 to 5) | 0 (O represents less than 30% kill) | 3 (3 represents over 90% kill) | 2 (key: O represents less than 30% kill; 1 represents 30 - 49% kill; 2 represents 60 - 90% kill; 3 represents over 90% kill; C indicates a chemosterilant effect.; A indicates an antifeeding effect.) | 0 (key: O represents less than 30% kill; 1 represents 30 - 49% kill; 2 represents 60 - 90% kill; 3 represents over 90% kill; C indicates a chemosterilant effect.; A indicates an antifeeding effect.) | 0 (O represents less than 30% kill) | 5 | 0 (O represents less than 30% kill) |  |  |  |  |  | Amount of disease grading, disease A (Table 4) [4]: 2 (6 to 25); Amount of disease grading, disease E (Table 4) [7]: 0 (61 to 100); Mortality grading (kill) [10]: 3 (3 represents over 90% kill)
2 | N#Cc1cc([N+](=O)[O-])c(Nc2c(Cl)c(F)nc(F)c2Cl)c([N+](=O)[O-])c1 [Compound 34, 4(4-Cyano-2,6-dinitroanilino)-3,5-dichloro-2,6-difluoropyridine] | 0 (O represents less than 30% kill) | 0 (O represents less than 30% kill) | 100 | 3 (0 to 5) | 3 (3 represents over 90% kill) | 3 (0 to 5) | 3 (3 represents over 90% kill) | 3 (0 to 5) | 0 (O represents less than 30% kill) | 3 (3 represents over 90% kill) | 0 (key: O represents less than 30% kill; 1 represents 30 - 49% kill; 2 represents 60 - 90% kill; 3 represents over 90% kill; C indicates a chemosterilant effect.; A indicates an antifeeding effect.) | 2 (key: O represents less than 30% kill; 1 represents 30 - 49% kill; 2 represents 60 - 90% kill; 3 represents over 90% kill; C indicates a chemosterilant effect.; A indicates an antifeeding effect.) | 3 (3 represents over 90% kill) | 5 |  | 0 (61 to 100) | 3 (0 to 5) | 3 (0 to 5) | 2 (6 to 25) | 0 (61 to 100) | Damage to plants, post-emergence (Wheat; [19]): 0; Damage to plants, pre-emergence (Wheat; [19]): 3; Damage to plants, post-emergence (Lettuce; [19]): 0; Damage to plants, pre-emergence (Lettuce; [19]): 3; Damage to plants, post-emergence (Maize; [19]): 0; Damage to plants, pre-emergence (Maize; [19]): 3; Damage to plants, post-emergence (Tomato; [19]): 0; Damage to plants, pre-emergence (Tomato; [19]): 2; Antibacterial activity grading B3 (Xanthomonas malvacearum): 2 (6 to 25); Antibacterial activity grading B6 (Pseudomonas syringae): 3 (0 to 5)
3 | N#Cc1c(F)c(F)c(Nc2c(Cl)c(F)nc(F)c2Cl)c(F)c1F [Compound 19, 4(4-Cyano-2,3,5,6-tetrafluoroanilino)-3,5-dichloro-2,6-difluoropyridine] | 3 (3 represents over 90% kill) | 2 (2 represents 60 - 90% kill) |  |  | 3 (3 represents over 90% kill) |  | 3 (3 represents over 90% kill) |  | 3 (3 represents over 90% kill) | 3 (3 represents over 90% kill) | 0 (key: O represents less than 30% kill; 1 represents 30 - 49% kill; 2 represents 60 - 90% kill; 3 represents over 90% kill; C indicates a chemosterilant effect.; A indicates an antifeeding effect.) | 0 (key: O represents less than 30% kill; 1 represents 30 - 49% kill; 2 represents 60 - 90% kill; 3 represents over 90% kill; C indicates a chemosterilant effect.; A indicates an antifeeding effect.) | 3 (3 represents over 90% kill) | 5 | 3 (3 represents over 90% kill) | 3 (0 to 5) | 3 (0 to 5) | 3 (0 to 5) | 3 (0 to 5) | 3 (0 to 5) | Damage to plants, post-emergence (Barley): 2; Damage to plants, post-emergence (Onion): 1; Damage to plants, post-emergence (Pea): 0; Damage to plants, post-emergence (Carrot): 0; Damage to plants, post-emergence (Wheat; [20]): 2; Damage to plants, pre-emergence (Wheat; [20]): 3; Damage to plants, post-emergence (Rice): 2; Damage to plants, post-emergence (Lettuce; [20]): 3; Damage to plants, pre-emergence (Lettuce; [20]): 3; Damage to plants, post-emergence (Sugar beet): 2; Damage to plants, post-emergence (Maize; [20]): 1; Damage to plants, pre-emergence (Maize; [20]): 3; Damage to plants, post-emergence (Tomato; [20]): 3; Damage to plants, pre-emergence (Tomato; [20]): 3; Damage to plants, post-emergence (Kale): 3; Amount of disease grading, disease G [18]: 3 (0 to 5); Damage to plants, post-emergence (Oat): 0; Antibacterial activity grading B3 (Xanthomonas malvacearum): 3 (0 to 5); Antibacterial activity grading B6 (Pseudomonas syringae): 3 (0 to 5)

— patent publication US3965109A, “Certain aryl amino pyridines” (priority 1971, dated 1976)
